Assay results from patent US12533350B2, “Use of melanocortin-1 receptor agonist” (TANABE PHARMA CORPORATION, priority 2022, dated 2026).

Experiments:
[1] = system: pre-established BLM-induced skin fibrosis; details: imatinib at 150 mg/kg orally once daily day 22-42, positive control
[2] = system: dermal fibroblasts from SSc patients; test: TGF-β-induced human fibroblast activation, SSc patients; assay type: cell-based; details: concentration of 1000 nmol/L; TGF-β 10 ng/mL, 24 hours
Description: (§1) Full-thickness skin biopsies were obtained from clinically involved skin of patients affected by dcSSc, who were recruited from the Systemic sclerosis clinic within the Leeds Institute of Rheumatic and Musculoskeletal Medicine (UK). Control skin samples were from healthy donors. All patients with dcSSc and healthy donors provided written informed consent through the stratification for risk of progression in systemic sclerosis (STRIKE SSC), which had been approved by the North-East Research Ethic committee. Patients with SSc fulfilled the 2013 ACR/EULAR classification criteria for SSc and were classified as having dcSSc according to the LeRoy and Medsger criteria.
Dermal fibroblasts were isolated from the skin biopsy samples of healthy donors and SSc patients. […]
(§2) Total RNA was extracted using the Zymo quick RNA mini prep kit according to manufacturer's instructions (Zymo Research Corporation). […] Quantitative RT-PCR was performed in triplicates using SYBR Green RT-PCR Mastermix Kit (Thermo Fisher Scientific) and the ABI PRISM 7500 Fast Real Time PCR System (Applied Biosystems). […]
FIGS. 5(A)-5(B) show the effect of Compound A on human fibroblast activation. […] Each bar represents the mean±SEM of the measured values from three wells. […]

[3] = system: bleomycin (BLM)-induced skin fibrosis model; details: reported in the literature; cited from earlier work
[4] = system: dermal fibroblasts from healthy donors; test: TGF-β-induced human fibroblast activation, healthy donors; assay type: cell-based; details: concentration of 1000 nmol/L; TGF-β 10 ng/mL, 24 hours
Description: as §1
Dermal fibroblasts were isolated from the skin biopsy samples of healthy donors and SSc patients. The skin biopsy samples were minced with a scalpel, placed in plastic culture dishes and covered with Dulbecco's Modified Eagle Medium (DMEM) with 4.5 g/L glucose (Thermo Fisher Scientific) supplemented with 20% fetal calf serum (FCS, Thermo Fisher Scientific), 1% penicillin and streptomycin (Merck), and 1 μg/ml of amphotericin (Thermo Fisher Scientific) and cultured at 37° C. in a humidified atmosphere of 5% CO2. Additional growth medium was added after 3 days with no amphotericin. After 7 days, culture medium was replaced with medium containing 10% FCS and subsequently replenished every 2 to 3 days. When a visible outgrowth of cells was obtained, the fibroblasts were passaged. Briefly, cells were incubated with PBS containing 0.1% EDTA for 5 min, and then detached with trypsin-EDTA solution (Merck), and cultured until 70-80% confluent in DMEM (1 g/L glucose) supplemented with 10% FCS and 1% penicillin and streptomycin. After a subsequent passage, primary cells were retrovirally immortalized using human telomerase reverse transcriptase. […]
as §2
FIGS. 5(A)-5(B) show the effect of Compound A on human fibroblast activation. Dermal fibroblasts from a healthy individual or an SSc patient were grown to confluence, and placed under starvation for 24 hours in a medium supplemented with 1% fetal bovine serum (A: mRNA expression of ACTA2 and COL1A1 in dermal fibroblasts of healthy individuals was measured by real-time PCR, and normalized for the GAPDH expression level. B: mRNA expression of ACTA2 and COL1A1 in dermal fibroblasts of SSc patients was measured for by real-time PCR, and normalized for the GAPDH expression level). Each bar represents the mean±SEM of the measured values from three wells. […]

Row | Compound | BLM-induced increase of skin thickness [1] | BLM-induced increase of αSMA-positive myofibroblasts in the dermis [1] | BLM-induced loss of dermal white adipose tissue [1] | TGF-β-induced increase in αSMA mRNA expression [2] | skin fibrosis [3] | TGF-β-induced increase in αSMA mRNA expression [4]
1 | Cc1ccc(NC(=O)c2ccc(CN3CCN(C)CC3)cc2)cc1Nc1nccc(-c2cccnc2)n1 [imatinib, reference compound] | improved | improved | improved | – | – | –
2 | α-MSH [reference compound] | – | – | – | suppressed | suppress | suppressed
